# Where a name gives a salt, the structure may show the parent alone.
# Test system: patients who meet the 1990 ACR criteria for fibromyalgia syndrome
# Experiment: Multicenter, double-blind, randomized, placebo-controlled monotherapy study of milnacipran for treatment of fibromyalgia (Example 2)
# Type: in vivo, human
# Settings: 3-month treatment period (LOCF), intent-to-treat; for MFI total score, Change from baseline, Difference from Placebo / MFI total score, Change from baseline, LS Mean (SE): ANCOVA
# Experimental: This was a multicenter, randomized, double-blind, placebo-controlled three-arm study designed which enrolled 1196 patients who meet the 1990 ACR criteria for fibromyalgia syndrome (history of widespread pain and pain in 11 of 18 tender point sites on digital palpation), as well as the more detailed admission criteria outlined in the protocol.
# All randomized medications (placebo and milnacipran) were administered twice a day (BID).
# (i) Primary Efficacy Assessments: Patient Global Impression of Change (PGIC) administered to patients at visits Tx3, Tx7, Tx11 and Tx15/ET; Physical Component summary of SF-36 (SF-36 PCS) administered to patients at visits BL2/Tx0, Tx3, Tx7, Tx11 and Tx15/ET; (ii) Secondary Efficacy Assessments: Time weighted average (AUC) of weekly average PED morning recall pain score; PGIC and SF-36 PCS administered to patients at visits Tx3 to Tx15.
# (iii) Additional Efficacy Measurements: The Fibromyalgia Impact Questionnaire (FIQ) total score and physical function, Beck Depression Inventory (BDI), the MOS-Sleep Index Scale, the Arizona Sexual Experiences Scale (ASEX), Patient pain 24 hour and 7 day recall VAS, the SF-36 individual domains, Patient Global Disease Status, Patient Global Therapeutic Benefit, the Multiple Ability Self-report Questionnaire (MASQ, cognitive function), the Multidimensional Health Assessment Questionnaire (MDHAQ), Multidimensional Fatigue Inventory (MFI), and diary assessments including current pain (morning, random daily, and evening reports); overall pain past week (weekly report), overall fatigue in the last week (weekly report), and the extent that pain kept the patient from caring for themselves (weekly report).
structure (smiles),measurement,setting,value
"CCN(CC)C(=O)C1(c2ccccc2)CC1CN (racemic) [milnacipran, Z-2-aminomethyl-1-phenyl-N, N-diethylcyclopropanecarboxamide hydrochloride]","MFI total score, Actual, Mean",100 mg milnacipran,63.00
same,"MFI total score, Actual, Median",100 mg milnacipran,64.0
same,"MFI total score, Change from baseline, Mean",100 mg milnacipran,−5.39
same,"MFI total score, Change from baseline, Median",100 mg milnacipran,−4.0
same,"MFI total score, Change from baseline, Difference from Placebo",100 mg milnacipran,−1.80
same,"MFI total score, Change from baseline, LS Mean (SE)",100 mg milnacipran,−5.47 (0.792)
same,"MFI total score, Actual, Mean",200 mg milnacipran,64.15
same,"MFI total score, Actual, Median",200 mg milnacipran,65.0
same,"MFI total score, Change from baseline, Mean",200 mg milnacipran,−5.39
same,"MFI total score, Change from baseline, Median",200 mg milnacipran,−4.0
same,"MFI total score, Change from baseline, Difference from Placebo",200 mg milnacipran,−1.55
same,"MFI total score, Change from baseline, LS Mean (SE)",200 mg milnacipran,−5.63 (0.787)
